The results in this text go back to patent US7767665B2, “1,3-benzothiazinone derivatives and use thereof” (Takeda Pharmaceutical Company Limited, priority 2001, dated 2010).

In data set [1] the test system is primary heart muscle cells from newborn rats. The data set is described as follows: Inhibitory activity on heart muscle cell apoptosis (serum-free culture, viable cell number by WST-8). Format: cell-based, Wister rats. To be noted: Rattus norvegicus, 96 h; mean of three independent experiments; concentration required to increase the mean viable cell number by 50% as compared with that in the absence of test compounds; serum-free Medium 199, 4 days. The source says:
Inhibitory Activity on Heart Muscle Cell Apoptosis
Newborn rats (within 1 day afterbirth) were obtained from pregnant Wister rats purchased from Charles River, anesthetized under ether, and sterilized with 70% ethanol, and then their hearts were excised with tweezers. The excised hearts were washed with a phosphate-buffered physiological saline (T900; Takara) and cut into pieces with surgical scissors. These tissue pieces were washed 4 to 5 times with a phosphate-buffered physiological saline to remove a majority of blood-derived non-heart muscle cells. To the tissue pieces derived from 10 newborns, 5 ml of enzyme solution (1.25 mg trypsin (Difco) and 0.25 mg collagenase (Sigma) per ml of phosphate-buffered saline (PBS)) was added and the mixture was stirred with a stirrer at 37° C. for 15 minutes. Another 2.5 ml enzyme solution was then added twice repeatedly at a 15-minutes interval. Then, Medium 199 (Gibco) containing 10% fetal calf serum (Biowiker) was added in a half volume of the enzyme solution to terminate the enzyme reaction. The cells were filtered through a Cell Strainer (Falcon) and then centrifuged at 400×g for 5 minutes, whereby the cells were collected.
The cells thus collected from 10 newborns were suspended in 50 ml Medium 199 containing 10% fetal calf serum, plated onto 100 mm Petri dishes (Iwaki) in a volume of 10 ml/dish and cultured for 1 hour in a CO2 incubator set at 5% CO2 and 37° C. The cells were then recovered, filtered through a Cell Strainer and centrifuged at 400×g for 5 minutes to collect the primary heart muscle cells derived from newborn rats.
Then, the heart muscle cells from 10 newborn rats were suspended in 2 ml low-isotonic solution (prepared by dissolving 8.29 g NH4Cl, 1.0 g KHCO3, 37 mg EDTA/2Na (ethylenediaminetetraacetic acid disodium) (Dojindo) in 1 L of water) and left for 3 minutes to disrupt erythrocytes. After 10 ml Medium 199 containing 10% fetal calf serum was added thereto, the primary heart muscle cells from newborn rats were collected by centrifugation at 400×g for 5 minutes. The cells were suspended in Medium 199 containing 10% fetal calf serum and then filtered through a cell strainer. After 0.3% trypan blue was added to, and mildly mixed with, an aliquot of the resulting cell suspension, the number of heart muscle cells was counted on an erythrocyte counting plate.
The primary heart muscle cells from newborn rats were suspended at a density of 3×10^6 cells/ml in Medium 199 containing 10% fetal calf serum, put onto a 96-well plate in a volume of 0.1 ml/well, and then cultured in a CO2 incubator set at 5% CO2 and 37° C. After the plate was stirred with a micromixer (Taiyo Kagaku Kogyo), the medium was exchanged 3 times with serum-free Medium 199, and then test compounds were added thereto. The cells were cultured for additional 4 days to induce apoptosis. Then, fetal calf serum was added thereto at a concentration of 10%, and the cells were further cultured for about 17 hours in a CO2 incubator set at 5% CO2 and 37° C. Finally, the number of viable cells was determined with Cell Counting Kit (Dojindo) using WST-8 (2-(2-methoxy-4-nitrophenyl)-3-(4-nitrophenyl)-5-(2,4-disulfophenyl)-2H-tetrazolium, monosodium salt) as the coloring substrate to determine the inhibition of the heart muscle cell apoptosis.
The above-mentioned experiment was triplicated in an independent manner.
The Mean minimal effective concentration (±SD) was shown for each test compound (Compounds 1 to 5 obtained in Reference Examples) in Table 1. In Table 1, the minimal effective concentration is defined as the concentration required to increase the mean viable cell number by 50% as compared with that in the absence of test compounds.

`O=C(O)CCOCCCc1cccc(-c2nc(=O)c3ccccc3s2)n1` [Example 67, 3-{3-[6-(4-Oxo-4H-1,3-benzothiazin-2-yl)-2-pyridyl]propoxy}propionic acid] gave a melting point of 141 to 142 °C. The compound further gave a minimal effective concentration in data set [1] of 0.031 µM.

`CSc1cc(-c2nc(=O)c3ccccc3s2)ccn1` [Example 68, 2-(2-Methylthio-4-pyridyl)-4H-1,3-benzothiazine-4-one] returned a melting point of 173.4 to 173.5 °C. Further, the minimal effective concentration in data set [1] was determined as 0.018 µM.

`COc1cc(-c2nc(=O)c3ccccc3s2)ccn1` [Example 70, 2-(2-Methoxy-4-pyridyl)-4H-1,3-benzothiazine-4-one] yielded a melting point of 148.8 to 150.5 °C. This compound showed a minimal effective concentration in data set [1] of 0.017 µM.

As for `O=c1nc(-c2ccnc(N3CCOCC3)c2)sc2ccccc12` [Example 73, 2-(2-Morpholinyl-4-pyridyl)-4H-1,3-benzothiazine-4-one], the melting point was in the range of 157 to 158 °C. The minimal effective concentration in data set [1] is 0.024 µM.

Regarding `O=c1nc(-c2ccnc(Cl)c2)sc2ccccc12` [Example 76, 2-(2-Chloro-4-pyridyl)-4H-1,3-benzothiazine-4-one], the melting point is 177.8 to 178.4 °C. For the same compound, the minimal effective concentration in data set [1] worked out at 0.036 µM.

Consider `COC(=O)c1ccccc1Sc1cc(-c2nc(=O)c3ccccc3s2)ccn1` [Example 77, methyl 2-{[4-(4-oxo-4H-1,3-benzothiazin-2-yl)-2-pyridyl]thio}benzoate], for which the melting point lay in the range of 137 to 137.9 °C. Further, the minimal effective concentration in data set [1] was 0.039 µM.

`O=C(O)CCc1cccc(-c2nc(=O)c3ccccc3s2)n1` [Example 79, 3-[6-(4-Oxo-4H-1,3-benzothiazin-2-yl)-2-pyridyl]propionic acid]: the melting point lay within 243.2 to 243.5 °C. In addition, the minimal effective concentration in data set [1] came to 0.061 µM.

With `CC(C)(C)OC(=O)c1cccc(-c2nc(=O)c3ccccc3s2)n1` [Example 80, tert-Butyl 6-(4-oxo-4H-1,3-benzothiazin-2-yl)-2-pyridinecarboxylate], the melting point was 185 to 185.5 °C. Moreover, the minimal effective concentration in data set [1] was found to be 0.035 µM.

Consider `O=C(O)c1cccc(-c2nc(=O)c3ccccc3s2)n1` [Example 81, 6-(4-Oxo-4H-1,3-benzothiazin-2-yl)-2-pyridinecarboxylic acid], for which the melting point was 260.2 to 260.5 °C. This compound also had a minimal effective concentration in data set [1] of 0.012 µM.

`O=C(NCC(F)(F)F)c1cccc(-c2nc(=O)c3ccccc3s2)n1` [Example 82, 6-(4-Oxo-4H-1,3-benzothiazin-2-yl)-N-(2,2,2-trifluoroethyl)-2-pyridinecarboxamide]: the melting point lay in the range of 242.6 to 244.2 °C. In data set [1], the minimal effective concentration amounted to 0.011 µM.

Turning to `COCCNC(=O)c1cccc(-c2nc(=O)c3ccccc3s2)n1` [Example 83, N-(2-Methoxyethyl)-6-(4-oxo-4H-1,3-benzothiazin-2-yl)-2-pyridinecarboxamide], the melting point lay within 175.5 to 176.7 °C. In data set [1], this compound gave a minimal effective concentration of 0.027 µM.

In the case of `O=c1nc(-c2ccccn2)sc2cc(C(F)(F)F)ccc12` [Example 85, 2-(2-Pyridyl)-7-trifluoromethyl-4H-1,3-benzothiazine-4-one], the melting point was in the range of 175.8 to 177 °C. This compound showed a minimal effective concentration in data set [1] of 0.04 µM.

`O=C(O)CCOCCCc1ccc(-c2nc(=O)c3ccccc3s2)nc1` [Example 99, 3-{3-[6-(4-Oxo-4H-1,3-benzothiazin-2-yl)-3-pyridyl]propoxy}propionic acid]: the melting point was 145.2 to 146.6 °C. The minimal effective concentration in data set [1] stood at 0.043 µM.

On to `CN(C)/C=N/S(=O)(=O)CC(C)(C)COc1cccc(-c2nc(=O)c3ccccc3s2)n1` [Example 100, N,N-(Dimethylaminomethylene)-2,2-dimethyl-3-{[6-(4-oxo-4H-1,3-benzothiazin-2-yl)-2-pyridyl]oxy}-1-propanesulfonamide], for which the melting point lay in the range of 174.5 to 175.3 °C. Also, the minimal effective concentration in data set [1] stood at 0.036 µM.

`O=C(O)CCOCCCc1ccnc(-c2nc(=O)c3ccccc3s2)c1` [Example 102, 3-[3-[2-(4-Oxo-4H-1,3-benzothiazin-2-yl)-4-pyridyl]propoxy]propanoic acid] came in with a melting point of 153.8 to 153.9 °C. For the same compound, the minimal effective concentration in data set [1] worked out at 0.036 µM.

Regarding `CCCCN(C)C(=O)c1cccc(-c2nc(=O)c3ccccc3s2)n1` [Example 103, N-Butyl-N-methyl-6-(4-oxo-4H-1,3-benzothiazin-2-yl)-2-pyridinecarboxamide], the melting point fell in the range of 80 to 81.6 °C. In data set [1], this compound showed a minimal effective concentration of 0.042 µM.

`O=C(c1cccc(-c2nc(=O)c3ccccc3s2)n1)N1CCCC1` [Example 104] came in with a melting point of 232 to 234 °C. The same compound showed a minimal effective concentration in data set [1] of 0.019 µM.

With `CCN(CC)C(=O)c1cccc(-c2nc(=O)c3ccccc3s2)n1` [Example 105, N,N-Diethyl-6-(4-oxo-4H-1,3-benzothiazin-2-yl)-2-pyridinecarboxamide], the melting point lay within 194 to 194.3 °C. This compound also showed a minimal effective concentration in data set [1] of 0.028 µM.

`CC(C)(C)OC(=O)NCCCCCCNC(=O)c1cccc(-c2nc(=O)c3ccccc3s2)n1` [Example 106, tert-Butyl [[[6-(4-oxo-4H-1,3-benzothiazin-2-yl)-2-pyridyl]carbonyl]amino]hexylcarbamate] returned a melting point of 145.1 to 145.4 °C. This compound also gave a minimal effective concentration in data set [1] of 0.052 µM.

Turning to `CN(C(=O)c1cccs1)c1cccc(-c2nc(=O)c3ccccc3s2)n1` [Example 111, N-Methyl-N-[6-(4-oxo-4H-1,3-benzothiazin-2-yl)-2-pyridyl]-2-thiophenecarboxamide], the melting point lay within 191.5 to 192.9 °C. In data set [1], this compound gave a minimal effective concentration of 0.037 µM.

`CN(C(=O)c1ccco1)c1cccc(-c2nc(=O)c3ccccc3s2)n1` [Example 112, N-Methyl-N-[6-(4-oxo-4H-1,3-benzothiazin-2-yl)-2-pyridyl]-2-furamide] registered a melting point of 186.2 to 187.2 °C. In data set [1], the minimal effective concentration worked out at 0.051 µM.

In turn, `CN(C(=O)c1ccccc1)c1cccc(-c2nc(=O)c3ccccc3s2)n1` [Example 113, N-Methyl-N-[6-(4-oxo-4H-1,3-benzothiazin-2-yl)-2-pyridyl]benzamide] came in with a melting point of 234 to 235.4 °C. In data set [1], this compound came in with a minimal effective concentration of 0.022 µM.

For the compound `CN(C(=O)C1CCCCC1)c1cccc(-c2nc(=O)c3ccccc3s2)n1` [Example 115, N-methyl-N-[6-(4-oxo-4H-1,3-benzothiazin-2-yl)-2-pyridyl]cyclohexanecarboxamide], the melting point lay within 184.4 to 185.8 °C. The minimal effective concentration in data set [1] was found to be 0.052 µM.

`CCSc1cccc(-c2nc(=O)c3ccccc3s2)n1` [Example 126, 2-[6-(Ethylthio)-2-pyridyl]-4H-1,3-benzothiazine-4-one]: the melting point fell in the range of 161.3 to 162 °C. Also, the minimal effective concentration in data set [1] was found to be 0.032 µM.

`CC(C)Sc1cccc(-c2nc(=O)c3ccccc3s2)n1` [Example 127, 2-[6-(Isopropylthio)-2-pyridyl]-4H-1,3-benzothiazine-4-one] gave a melting point of 185.4 to 185.8 °C. This compound also had a minimal effective concentration in data set [1] of 0.04 µM.

As for `CC(C)(C)Sc1cccc(-c2nc(=O)c3ccccc3s2)n1` [Example 128, 2-[6-(tert-Butylthio)-2-pyridyl]-4H-1,3-benzothiazine-4-one], the melting point is 152.9 to 153.8 °C. Also, the minimal effective concentration in data set [1] stood at 0.081 µM.

For `CN(C)CCSc1cccc(-c2nc(=O)c3ccccc3s2)n1` [Example 133, 2-{[6-[2-(N,N-Dimethylamino)ethyl]thio]-2-pyridyl}-4H-1,3-benzothiazine-4-one], the melting point was 154.8 °C (dec.). The compound further registered a minimal effective concentration in data set [1] of 0.06 µM.
